From PMC10343887, “Structural Optimization of BIPPO Analogs as Potent Antimalarials” (Molecules, 2023)

Legend:
[1] = Non-specific toxicity control on human MRC-5 cells; type: cell-based; conditions: human MRC-5 cells; average values n ≥ 2, s.d. < 0.3; read-out: MRC-5 pIC50 (converted)
[2] = tested on: P. falciparum; assay: Antimalarial screening against asexual blood stage P. falciparum; type: cell-based, Plasmodium falciparum; conditions: for fold potency increase compared with 3 / fold potency decrease compared with 30 / fold decreased antimalarial potency compared to 3: P. falciparum; for fold potency increase compared with 3 / fold decreased antimalarial potency compared to 3: relative to 3; for fold potency decrease compared with 30: relative to 30; for IC50: Plasmodium falciparum, read-out: P. fal pIC50 (converted); for IC50 / P. fal pIC50: potency against asexual blood stage of P. falciparum, average values n ≥ 2, s.d. < 0.3
Method: Previously, Howard et al. reported (sub)micromolar activity against P. falciparum for a series of BIPPO analogs with benzyl substituents. To further understand the structure–activity relationship (SAR) of this interesting scaffold, close analogs of 3 with substituents at R^1–R^4 positions were tested against P. falciparum and human MRC-5 cells as the control for non-specific toxicity (Table 1).
The assay for antimalarial activity was carried out as described in detail in Pereira et al..

[3] = Metabolic stability in mouse liver microsomes (S9 fraction); type: in vitro ADME; conditions: for metabolic stability relative to diclofenac: mouse Phase I assay; for parent compound left: one hour of incubation
Method: (§1) Thus, compounds 23, 28–30, 47a and 47b with high potencies (pIC50 > 6) were evaluated for their in vitro metabolic stability in human and mouse liver microsomes (S9 fraction) with diclofenac as a reference compound. As summarized in Figure 2, substituents in the R^4 position affect metabolic stability. […] Their stability against mouse liver microsomes is lower, especially for their Phase I metabolism; only 38% and 26% of the parent compounds are left for 23 and 29 after one hour of incubation. […] For the adamantanyl analogs 30, 47a and 47b, metabolic stability differs drastically, with Phase I identified as the main metabolic pathway. Analog 47b was metabolized for >95% within 30 min with mouse liver microsomes, while 90% of 47a (tert-butyl analog) was left after one hour of incubation.
(§2) The assay for metabolic stability in human and mouse liver microsomal fractions (S9) was performed as described.

[4] = Metabolic stability in human liver microsomes (S9 fraction); type: in vitro ADME; conditions: one hour incubation, Phase I and Phase II metabolism
Method: as §1, §2

[5] = tested on: human MRC-5 cells; assay: Non-specific toxicity control on human MRC-5 cells; type: cell-based
[6] = mouse liver microsomes, Phase I metabolism
[7] = mouse liver microsomes, phase not given

For `CC(C)c1n[nH]c2c(=O)[nH]c(C3CCCCC3)nc12` [compound 23, 5-Cyclohexyl-3-isopropyl-1,6-dihydro-7H-pyrazolo[4,3-d]pyrimidin-7-one], the IC50 [1] was over 63.1 µM, the “fold potency increase compared with 3” value [2] was “five” and the “metabolic stability relative to diclofenac” value [3] was “metabolized faster than diclofenac”. For the same compound, the “metabolic stability in mouse liver microsomes (in words)” value (shortened to “metabolic stability … (in words)”) ([3]; mouse liver microsomes) was “favorable metabolic stability”, the parent compound left [3, 6] was 38% and the parent compound remaining [4] was “more than 50%”.

In the case of `CC(C)(C)c1n[nH]c2c(=O)[nH]c(C34CC5CC(CC(C5)C3)C4)nc12` [47a, 5-(Adamantan-1-yl)-3-(tert-butyl)-1,6-dihydro-7H-pyrazolo[4,3-d]pyrimidin-7-one], the IC50 [1] is reported as over 63.1 µM, the “fold potency decrease compared with 30” value [2] is reported as 4 fold and the “metabolic stability … (in words)” value ([3]; mouse liver microsomes) is reported as “favorable metabolic stability”. It also gave a parent compound left [3, 7] of 90%.

With `CC(C)c1n[nH]c2c(=O)[nH]c(C3CCC(F)(F)CC3)nc12` [compound 28, 5-(4,4-Difluorocyclohexyl)-3-isopropyl-1,6-dihydro-7H-pyrazolo[4,3-d]pyrimidin-7-one] the IC50 [1] was over 63.1 µM, the IC50 [2] was under 1 µM and the “P. fal pIC50” value [2] was 6.0. For the same compound, the “metabolic stability … (in words)” value ([3]; mouse liver microsomes) was “favorable metabolic stability”, the parent compound left [3, 7] was 68% and the parent compound remaining [4] was “more than 50%”.

With “5-(Benzyloxy)-3-isopropyl-1,6-dihydro-7H-pyrazolo[4,3-d]pyrimidin-7-one [compound 5]” the “MRC-5 pIC50” value ([5]; human MRC-5 cells, average values n ≥ 2, s.d. < 0.3) was under 4.2, the “fold decreased antimalarial potency compared to 3” value [2] was 5- to 25 fold and the “P. fal pIC50” value [2] was 5.2.

For `CC(C)c1n[nH]c2c(=O)[nH]c(C34CCC(CC3)CC4)nc12` [compound 29, 5-(Bicyclo[2.2.2]octan-1-yl)-3-isopropyl-1,6-dihydro-7H-pyrazolo[4,3-d]pyrimidin-7-one], the IC50 [1] was over 63.1 µM, the “metabolic stability relative to diclofenac” value [3] was “metabolized faster than diclofenac” and the “metabolic stability … (in words)” value ([3]; mouse liver microsomes) was “favorable metabolic stability”. The parent compound left [3, 6] was 26% and the parent compound remaining [4] was “more than 50%”.

In the case of `CC(C)c1n[nH]c2c(=O)[nH]c(-c3ccn(C)c(=O)c3)nc12` [compound 11, 3-Isopropyl-5-(1-methyl-2-oxo-1,2-dihydropyridin-4-yl)-1,6-dihydro-7H-pyrazolo[4,3-d]pyrimidin-7-one], the IC50 [1] is reported as over 63.1 µM and the IC50 [2] is reported as over 63.1 µM.

With `CC(C)c1n[nH]c2c(=O)[nH]c(CCc3ccccc3)nc12` [compound 12, 3-Isopropyl-5-phenethyl-1,6-dihydro-7H-pyrazolo[4,3-d]pyrimidin-7-one] the IC50 [1] was over 63.1 µM, the “fold decreased antimalarial potency compared to 3” value [2] was 5- to 25 fold and the IC50 [2] was 6.31 µM.

With `CC(C)c1n[nH]c2c(=O)[nH]c(C(C)(C)c3ccccc3)nc12` [compound 14, 3-Isopropyl-5-(2-phenylpropan-2-yl)-1,6-dihydro-7H-pyrazolo[4,3-d]pyrimidin-7-one] the IC50 [1] was over 63.1 µM and the IC50 [2] was 1 µM.

With `O=c1[nH]c(C23CC4CC(CC(C4)C2)C3)nc2c(C3CCCC3)n[nH]c12` [47b, 5-(Adamantan-1-yl)-3-cyclopentyl-1,6-dihydro-7H-pyrazolo[4,3-d]pyrimidin-7-one] the IC50 [1] was over 63.1 µM, the “fold potency decrease compared with 30” value [2] was 2.5 fold and the IC50 [2] was under 1 µM. For the same compound, the “P. fal pIC50” value [2] was 6.2, the “metabolic stability relative to diclofenac” value [3] was “metabolized faster than diclofenac” and the metabolized ([3]; mouse liver microsomes, within 30 min) was over 95%.

`CC(C)(C)c1n[nH]c2c(=O)[nH]c(Cc3ccccc3)nc12` [46a, 5-Benzyl-3-(tert-butyl)-1,6-dihydro-7H-pyrazolo[4,3-d]pyrimidin-7-one] showed an IC50 [1] of 39.8 µM and an IC50 [2] of 1.58 µM.

Work on `Cc1nc2c(C(C)C)n[nH]c2c(=O)[nH]1` [compound 19, 3-Isopropyl-5-methyl-1,6-dihydro-7H-pyrazolo[4,3-d]pyrimidin-7-one] yielded an IC50 [1] of over 63.1 µM and an IC50 [2] of 39.8 µM.

For `CC(C)c1c2nc(Cc3ccccc3)[nH]c(=O)c2nn1C` [37b, 5-Benzyl-3-isopropyl-2-methyl-2,6-dihydro-7H-pyrazolo[4,3-d]pyrimidin-7-one], the IC50 [1] was over 63.1 µM and the IC50 [2] was 5.01 µM.

For `CC(C)c1n[nH]c2c(=O)[nH]c(C34CC5CC(CC(C5)C3)C4)nc12` [compound 30, 5-(Adamantan-1-yl)-3-isopropyl-1,6-dihydro-7H-pyrazolo[4,3-d]pyrimidin-7-one], the “toxicity for human MCR-5 cells (in words)” value [5] was “without showing noticeable toxicity”, the IC50 [1] was over 63.1 µM and the “fold potency increase compared with 3” value [2] was “eight”. For the same compound, the “metabolic stability relative to diclofenac” value [3] was “metabolized faster than diclofenac”.

Compound `CC(C)c1n[nH]c2c(=O)[nH]c(C3CCCC3)nc12` [compound 22, 5-Cyclopentyl-3-isopropyl-1,6-dihydro-7H-pyrazolo[4,3-d]pyrimidin-7-one] has an IC50 [1] of over 63.1 µM and an IC50 [2] of 0.794 µM.

For `CC(C)c1nn(C)c2c(=O)[nH]c(C34CC5CC(CC(C5)C3)C4)nc12` [38a, 5-(Adamantan-1-yl)-3-isopropyl-1-methyl-1,6-dihydro-7H-pyrazolo[4,3-d]pyrimidin-7-one], the IC50 [1] was over 63.1 µM, the “fold potency decrease compared with 30” value [2] was “more than 400 fold” and the IC50 [2] was over 63.1 µM.

In the case of `CC(C)c1c2nc(C34CC5CC(CC(C5)C3)C4)[nH]c(=O)c2nn1C` [38b, 5-(Adamantan-1-yl)-3-isopropyl-2-methyl-2,6-dihydro-7H-pyrazolo[4,3-d]pyrimidin-7-one], the IC50 [1] is reported as over 63.1 µM, the “fold potency decrease compared with 30” value [2] is reported as “more than 15 fold” and the IC50 [2] is reported as 2.51 µM.

For `CC(C)c1n[nH]c2c(=O)[nH]c(-c3cscn3)nc12` [compound 9, 3-Isopropyl-5-(thiazol-4-yl)-1,6-dihydro-7H-pyrazolo[4,3-d]pyrimidin-7-one], the IC50 [1] was over 63.1 µM and the IC50 [2] was over 63.1 µM.

Work on `CC(C)c1nc2c(C(C)C)n[nH]c2c(=O)[nH]1` [compound 20, 3,5-Diisopropyl-1,6-dihydro-7H-pyrazolo[4,3-d]pyrimidin-7-one] yielded an IC50 [1] of over 63.1 µM and an IC50 [2] of 3.98 µM.

`CC(C)c1n[nH]c2c(=O)[nH]c(-c3ccc(=O)n(C)c3)nc12` [compound 10, 3-Isopropyl-5-(1-methyl-6-oxo-1,6-dihydropyridin-3-yl)-1,6-dihydro-7H-pyrazolo[4,3-d]pyrimidin-7-one] gave an IC50 [1] of over 63.1 µM and an IC50 [2] of over 63.1 µM.

For `COC(c1ccccc1)c1nc2c(C(C)C)n[nH]c2c(=O)[nH]1` (racemic) [compound 15, (racemic)-3-Isopropyl-5-(methoxy(phenyl)methyl)-1,6-dihydro-7H-pyrazolo[4,3-d]pyrimidin-7-one], the IC50 [1] was over 63.1 µM, the “fold decreased antimalarial potency compared to 3” value [2] was 5- to 25 fold and the IC50 [2] was 7.94 µM.

`CC(C)c1n[nH]c2c(=O)[nH]c([C@H]3CC[C@H](O)CC3)nc12` [compound 27, trans-5-(4-Hydroxycyclohexyl)-3-isopropyl-1,6-dihydro-7H-pyrazolo [4,3-d]pyrimidin-7-one] gave an IC50 [1] of over 63.1 µM and an IC50 [2] of 5.01 µM.

For `CC(C)c1n[nH]c2c(=O)[nH]c(Cc3ccncc3)nc12` [compound 4, 3-Isopropyl-5-(pyridin-4-ylmethyl)-1,6-dihydro-7H-pyrazolo[4,3-d]pyrimidin-7-one], the IC50 [1] was over 63.1 µM, the “fold decreased antimalarial potency compared to 3” value [2] was “six” and the IC50 [2] was 7.94 µM.
